Test results taken from ChEMBL document CHEMBL1150928, “A new antitubercular mulinane diterpenoid from Azorella madreporica Clos” (J Nat Prod, 1998).
In brackets after ≈: the same amount, converted by molar mass.

Tests used:
[1] = test system: Mycobacterium tuberculosis; experiment: Antitubercular activity against Mycobacterium tuberculosis H37Rv ATCC 27294; type: functional
Vero = experiment: Cytotoxicity against african green monkey Vero cells; type: cell-based; details: Chlorocebus sabaeus

How did the MIC [1] turn out when `CC(C)[C@H]1CC[C@@H]2[C@]1(C)CC[C@@]1(C)CC[C@@](C)(O)[C@@H]3C[C@@]231` was run?
The MIC was 20 µg/mL (≈ 68.8 µM).

And the IC50 (Vero)?
The IC50 was 184 µg/mL (≈ 633 µM).

How did the IC50 (Vero) turn out when `CO[C@H]1/C=C/O[C@@]2(C)Oc3c(C)c(O)c4c(O)c(c(/C=N/N5CCN(C)CC5)c(O)c4c3C2=O)NC(=O)/C(C)=C\C=C\[C@H](C)[C@H](O)[C@@H](C)[C@@H](O)[C@@H](C)[C@H](OC(C)=O)[C@@H]1C` [RIFAMPIN] was run?
Its IC50 is greater than 158 µg/mL.
